US8609730B2, “Rel inhibitors and methods of use thereof” (The Trustees of the University of Pennsylvania, priority 2008, dated 2013)
Entries after “also recorded” stand apart in the source; their conditions may differ.

Tests used:
[1] = system: splenocytes or purified CD4+ splenic T cells of C57BL/6 mice; experiment: Cell-based assay for testing c-Rel blockers: cytokine expression with anti-CD3 and anti-CD28; design: IL-4 in culture: dose or concentration left out as unconfirmed; settings: for IL-2 production by T cells (IL-2 release assay, secondary screening): hits of virtual screening
Method: (§1) Splenocytes of C57BL/6 mice (n=4) were cultured with or without plate-bound anti-CD3 (1 ug/ml) and soluble anti-CD28 (2 ug/ml), in the presence of various concentrations of R96 as indicated. R96 was dissolved in PBS, and the amount of the PBS added to each culture was identical ([…]). Twenty-four hours later, cytokines in the supernatant were determined by ELISA (A-C). The percentages of dead cells in the culture were determined by flow cytometry following staining cells with annexin-V and propidium iodide (PI)(D).
To design drugs that could disable human c-Rel binding to DNA (therefore blocking the biological activity of c-Rel), chicken c-Rel 3-D model was first humanized by replacing chicken residues with their human counterparts. The model was then minimized using the Insight II software (Accelrys, Inc). The minimized model was used to discover small molecule inhibitors that can interfere with the residues in loops L1 and L2. A small druggable cavity was identified using programs available in Insight II. This structure was designated as the L1 cavity. The L1 cavity is formed by loops L1, L2 and a helix. Residues Arg 21, Cys 26, Glu 27, Lys 110 and Lys 111 form the mouth of the L1 cavity (FIG. 2). A virtual screening approach was used to identify small molecule inhibitors that block DNA binding to the L1 cavity by perturbing these key contact residues as we previously described. From ˜50,000 drug-like molecules of available chemical libraries, about 100 hits were identified. […] These compounds fall into two structural classes, the phenylcarbamates (FIG. 2C) and sulfanyl-methaniminium-based compounds, represented by R13:
To determine whether the c-Rel blockers identified above are effective in regulating inflammatory cell function, splenocytes or purified CD4+ splenic T cells of C57BU6 mice were treated with anti-CD3 and anti-CD28 in the presence of increasing concentrations of the compounds. Cytokine expression was determined by ELISA, flow cytometry or real-time PCR, whereas CD4 expression and cell survival were determined by flow cytometry alone. […]

[2] = system: spleen cells of B6 mice; experiment: Cytokine production by spleen cells treated with anti-CD3 antibody (ELISA); type: cell-based
Method: FIG. 1. FIG. 1A depicts a graph showing the IL-2 inhibitory effect of R13D (compound III), R13096 (compound CXX), and R13015 (compound VI). FIG. 1B depicts a graph showing the IFN-gamma inhibitory effect of R13D (compound III), R13096 (compound CXX), and R13015 (compound VI).
FIG. 3. Depicts a graph showing Splenocytes that were cultured under various conditions as indicated on the X-axis. Twenty-four hours later, cytokines in the supernatant were determined by ELISA (R13D is compound III, R31C. is compound IV, R32D is compound VII).
To determine whether these inhibitors are effective in suppressing cytokine production by inflammatory cells, spleen cells of B6 mice were treated with anti-CD3 antibody (to activate the inflammatory cells) with or without different concentrations of the compounds. […] As further shown in FIG. 1 IL-2 and IFN-gamma were inhibited by […], and compound VI at concentrations ranging from 5-20 μM.

[3] = system: C57BL/6 mice immunized to induce EAE; experiment: EAE induced with MOG38-50 peptide, prevention and treatment; type: in vivo; settings: for treating ongoing EAE (after onset): i.p. daily after onset, 100 ug/mouse/injection
[4] = system: splenocytes or CD4+ T cells of C57BL/6 mice; experiment: Cell survival / dead cells by flow cytometry (annexin-V and propidium iodide); type: cell-based; design: survival of CD4+ T cells or total splenocytes: dose or concentration left out as unconfirmed
Method: as §1
To determine whether the c-Rel blockers identified above are effective in regulating inflammatory cell function, splenocytes or purified CD4+ splenic T cells of C57BU6 mice were treated with anti-CD3 and anti-CD28 in the presence of increasing concentrations of the compounds. Cytokine expression was determined by ELISA, flow cytometry or real-time PCR, whereas CD4 expression and cell survival were determined by flow cytometry alone. […] The IC50 of R96 for IL-2 inhibition is […]. […] Because Th1 cytokine IFN-g inhibits the activity of Th2 cells, the increased IL-4 in cultures containing […] R96 could be due to the reduced IFN-g in the culture. […] In fact, c-Rel-deficient mice have reduced but not increased IgG1, IgG3 and IgE production.

[5] = anti-CD3 treated spleen cells, 24 h, FIG. 3
[6] = FIG. 1, concentrations ranging from 5-20 μM

For `O=C(Nc1ccccc1)OCc1nccn1Cc1ccc(Cl)cc1` [R13], the “IL-2 production by T cells (IL-2 release assay, secondary screening)” value [1] was “significantly inhibited”, the “Interleukin (IL)-2 production” value [2, 5] was “significantly inhibited” and the interferon-gamma production [2, 5] was “significantly inhibited”. For the same molecule, the “treating ongoing EAE (after onset)” value [3] was “statistically significant; also recorded: significantly ameliorated” and the “preventing EAE (prophylaxis)” value ([3]; i.p. daily from day 1 to day 13, 100 ug/mouse/injection (100 mg)) was “statistically significant”.
With `Br.N#Cc1ccc(CSC(=N)Nc2ccccc2)cc1` [R96] the IL-4 in culture ([1]; cultures containing R96) was “increased”, the “IL-2 production by T cells (IL-2 release assay, secondary screening)” value [1] was “most potent” and the “survival of CD4+ T cells or total splenocytes” value ([4]; highest concentration tested) was “does not significantly affect”. The “percentage of annexin-V+ and PI+ cells (dead cells)” value ([4]; various concentrations, 24 h) was “No significant differences”, the “treating ongoing EAE (after onset)” value [3] was “statistically significant; also recorded: significantly ameliorated” and the mean disease score ([3]; seven days into the treatment after onset, FIG. 5C, control 1.83±0.16, p<0.001) was 0.75±0.43.
With `CC(C)(C)c1cc(NC(=O)/C(C#N)=C/c2cccc(Cl)c2Cl)c(C(N)=O)s1` [compound V] the IFN-gamma inhibition [2, 6] was “inhibited” and the IL-2 inhibition [2, 6] was “inhibited”.
